Measurements reported in patent publication US20240215905A1, “WOUND DRESSING” (5D HEALTH PROTECTION GROUP LTD, priority 2021, published 2024).

Columns and labels:
Pseudomonas = experiment: Bacterial proliferation assay (Colony Forming Units) with added silver; assay type: cell-based; details: for added Ag^+ concentration at which antibacterial efficacy is apparent: 0.3 ppm is the lowest concentration measured (range 0.3 to 300 ppm)
Method: To assess the antibacterial efficacy of the silver, and to correlate this with the sensor response, bacterial proliferation assays were performed on MHB2, PBS, NaNO3 and SWF solutions with added silver at concentrations between 0.3 to 300 ppm.

[1] = Optical density measurements indicating AgCl precipitates/aggregates in solution; assay type: physicochemical; details: no bacteria present
Text: Optical density measurements can be used to indicate the presence of AgCl precipitates/aggregates in solution. […] No bacteria where present for the measurements.

With `[Ag+]` [Ag^+, silver ions] the “added Ag^+ concentration at which antibacterial efficacy is apparent” value (Pseudomonas; NaNO3 solution) was no more than 0.3 ppm, the “added Ag^+ concentration at which antibacterial efficacy is apparent” value (Pseudomonas; PBS solution) was no more than 0.3 ppm and the “added Ag^+ concentration at which antibacterial efficacy is seen” value (Pseudomonas; SWF (simulated wound fluid, 33 g/L BSA) solution) was no less than 30 ppm. The “added Ag^+ concentration above which AgCl precipitation is seen (optical density)” value ([1]; PBS) was “above 1 ppm” and the “added Ag^+ concentration above which AgCl precipitation is seen (optical density)” value ([1]; SWF) was “above 30 ppm”.
